In PMC9668969 (Nature Communications, 2022):
Several values for one entry are separate records, joined by “and”; a condition that tells them apart may be missing. Identical values can stand only once.

Test system: WT ELIC
Assay: Fluorescence stopped-flow liposomal Tl+ flux assay, symmetric liposomes
Format: biochemical, Erwinia chrysanthemi
Design: Tl+ flux quenching rate, Avg. / Tl+ flux quenching rate: unit not given here
Conditions: for Avg (stopped-flow fluorescence quenching rate) / Rate (stopped-flow fluorescence quenching rate): WT in PC liposomes; for Avg (stopped-flow fluorescence quenching rate): average of experiments; for Rate (stopped-flow fluorescence quenching rate) / Tl+ flux quenching rate: single experiments
Procedure: The fluorescence sequential-mixing stopped-flow liposomal flux measurements were carried using an SX20 stopped-flow spectrofluorometer (Applied Photophysics) and Pro-Data SX software[13],[30]. 7.5 mg of the respective lipid mixture (POPC, 1:1 POPC: POPE, 1:1 POPC:POPG, 3:1 POPC:POPE, 3:1 POPC:POPG, 2:1:1 POPC:POPE:POPG) was dried in a glass vial to a thin film under a constant stream of N2. The lipids were then further dried under vacuum in a desiccator overnight. The following day the lipids were hydrated in 500 µl of reconstitution buffer (100 mM NaNO3, 10 mM HEPES, pH 7) (Buffer R), 250 µl of 75 mM 8-Aminonaphthalene-1,3,6-Trisulfonic Acid (ANTS, ThermoFisher Scientific) in buffer R, and doped with ~18 mg of CHAPS (Anatrace). The mixture was vortexed and then sonicated with heat until completely solubilized. Following the sonication, the solution was brought to RT then 3.5 µl of 6.7 mg/ml ELIC in Buffer A with 0.02% DDM was added (3 µg per mg of lipid). This combined solution was incubated at RT for 30 min, followed by the addition of 1 ml of 1:1 v/v SM-2 BioBeads in Buffer R and an additional 250 µl of 75 mM ANTS in Buffer R. This mixture was incubated at RT for 2.5 hr with gentle mixing. The liposome suspension was then extruded with an Avanti mini-extruder and 0.1 µm membrane (30×). The extruded liposomes were stored at 13 °C overnight with gentle rotation. The next day, the liposomes were diluted to 2.5 mL using assay buffer (140 mM NaNO3, 10 mM HEPES, pH 7) (Stopped-flow Buffer A), loaded into a PD-10 desalting column (Cytiva), eluted with 3 mL of Stopped-flow Buffer A and subsequently diluted 5-fold with Stopped-flow Buffer A.
Using propylamine as the agonist, the assay and analysis was carried out as previously described[13],[30]. ELIC-containing liposomes were first mixed 1:1 with Buffer A containing 2× the concentration of propylamine. After a variable delay of 10 ms to 25 s, the sample was then mixed 1:1 with a quenching buffer (90 mM NaNO3, 50 mM TlNO3, 10 mM HEPES, pH 7), and ANTS fluorescence (ex. 360 nm, fluorescence above 420 nm) was recorded for 1 s. For each delay time, 5 repeat measurements were obtained. The data were collected using Applied Photophysics Pro-Data SX software. The fluorescence quenching traces were fit to a stretched exponential (Eq. 2a) and the rate of Tl^+ influx was determined at 2 ms (Eq. 2b).2a Ft=F∞+F0−F∞⋅e^−t/τ^β 2b kt=β/τ⋅2ms/τ^(β−1) where Ft, F∞, F0 are the fluorescence at time t, final fluorescence and initial fluorescence. τ is the time constant, β the stretched exponential factor, and kt the calculated rate of Tl^+ influx at 2 ms. The time course of desensitization was also fit to a double exponential and a weighted time constant was calculated as was done for the patch-clamp data using Origin 2019b. All replicates were taken from independent samples.

CCCN [propylamine]
Avg (stopped-flow fluorescence quenching rate) (1 mM PA, delay time 0.1): 0.1082 | Avg (stopped-flow fluorescence quenching rate) (1 mM PA, delay time 0.25): 0.06695 | Avg (stopped-flow fluorescence quenching rate) (1 mM PA, delay time 0.5): 0.1937 | Avg (stopped-flow fluorescence quenching rate) (1 mM PA, delay time 1): 0.6717 | Avg (stopped-flow fluorescence quenching rate) (1 mM PA, delay time 2.5): 0.1973 | Avg (stopped-flow fluorescence quenching rate) (1 mM PA, delay time 5): 0.1019 | Avg (stopped-flow fluorescence quenching rate) (1 mM PA, delay time 10): 0.1686 | Avg (stopped-flow fluorescence quenching rate) (3 mM PA, delay time 0): 0 | Rate (stopped-flow fluorescence quenching rate) (3 mM PA, delay time 0): 0 | Avg (stopped-flow fluorescence quenching rate) (3 mM PA, delay time 0.025): 24.9362 | Avg (stopped-flow fluorescence quenching rate) (3 mM PA, delay time 0.05): 279.785 | Avg (stopped-flow fluorescence quenching rate) (3 mM PA, delay time 0.1): 279.666 | Avg (stopped-flow fluorescence quenching rate) (3 mM PA, delay time 0.25): 300.719 | Avg (stopped-flow fluorescence quenching rate) (3 mM PA, delay time 0.5): 352.59 | Avg (stopped-flow fluorescence quenching rate) (3 mM PA, delay time 1): 284.973 | Avg (stopped-flow fluorescence quenching rate) (3 mM PA, delay time 2.5): 176.344 | Avg (stopped-flow fluorescence quenching rate) (3 mM PA, delay time 5): 145.791 | Avg (stopped-flow fluorescence quenching rate) (3 mM PA, delay time 10): 107.502 | Avg (stopped-flow fluorescence quenching rate) (10 mM PA, delay time 0): 0 | Rate (stopped-flow fluorescence quenching rate) (10 mM PA, delay time 0): 0 | Avg (stopped-flow fluorescence quenching rate) (10 mM PA, delay time 0.01): 3.242 | Avg (stopped-flow fluorescence quenching rate) (10 mM PA, delay time 0.025): 7.793 | Avg (stopped-flow fluorescence quenching rate) (10 mM PA, delay time 0.05): 10.0904 | Avg (stopped-flow fluorescence quenching rate) (10 mM PA, delay time 0.05 as printed in r31 (between 0.25 and 1)): 13.718 | Avg (stopped-flow fluorescence quenching rate) (10 mM PA, delay time 0.1): 10.8806 | Avg (stopped-flow fluorescence quenching rate) (10 mM PA, delay time 0.25): 11.6946 | Avg (stopped-flow fluorescence quenching rate) (10 mM PA, delay time 1): 9.9293 | Avg (stopped-flow fluorescence quenching rate) (10 mM PA, delay time 2.5): 4.516 | Avg (stopped-flow fluorescence quenching rate) (10 mM PA, delay time 5): 0.8684 | Rate (stopped-flow fluorescence quenching rate) (10 mM PA, delay time 10, listed as PA): 0.134 and 0.08335 and 0.06725 | Avg (stopped-flow fluorescence quenching rate) (30 mM PA, delay time 0): 0 | Rate (stopped-flow fluorescence quenching rate) (30 mM PA, delay time 0): 0 | Avg (stopped-flow fluorescence quenching rate) (30 mM PA, delay time 0.01): 8.996 | Avg (stopped-flow fluorescence quenching rate) (30 mM PA, delay time 0.025): 9.575 | Avg (stopped-flow fluorescence quenching rate) (30 mM PA, delay time 0.05): 10.6204 | Avg (stopped-flow fluorescence quenching rate) (30 mM PA, delay time 0.1): 12.7838 | Avg (stopped-flow fluorescence quenching rate) (30 mM PA, delay time 0.25): 12.1642 | Avg (stopped-flow fluorescence quenching rate) (30 mM PA, delay time 0.5): 10.2984 | Avg (stopped-flow fluorescence quenching rate) (30 mM PA, delay time 1): 6.967 | Avg (stopped-flow fluorescence quenching rate) (30 mM PA, delay time 2.5): 2.226 | Avg (stopped-flow fluorescence quenching rate) (30 mM PA, delay time 5): 0.2318 | Rate (stopped-flow fluorescence quenching rate) (30 mM PA, delay time 25, listed as PA): 0.1998 and 0.3265 | Tl+ flux quenching rate (WT 1:1 PC:PE 10 mM PA, delay 0.1 s, listed as PA): 18.5265 and 20.1957 and 27.1402 | Tl+ flux quenching rate (WT 1:1 PC:PE 10 mM PA, delay 0.25 s, listed as PA): 14.1307 and 20.5822 and 22.3191 | Tl+ flux quenching rate (WT 1:1 PC:PE 10 mM PA, delay 5 s, listed as PA): 8.309 and 12.2434 and 8.587 | Tl+ flux quenching rate (WT 3:1 PC:PE 10 mM PA, delay 0.05 s, listed as PA): 17.3372 and 23.7705 and 12.3709 | Tl+ flux quenching rate (WT 3:1 PC:PE 10 mM PA, delay 0.1 s, listed as PA): 25.2651 and 29.8644 and 21.5739 | Tl+ flux quenching rate (WT 3:1 PC:PE 10 mM PA, delay 0.5 s, listed as PA): 30.0354 and 34.8933 and 24.5328 | Tl+ flux quenching rate (WT 3:1 PC:PG 10 mM PA, delay 1 s, listed as PA): 9.374 and 10.6202 and 12.8093 | Tl+ flux quenching rate (WT 3:1 PC:PG 10 mM PA, delay 2.5 s, listed as PA): 7.906 and 8.478 and 12.3833 | Tl+ flux quenching rate (WT 3:1 PC:PG 10 mM PA, delay 5 s, listed as PA): 5.2352 and 10.1414 and 9.072 | Tl+ flux quenching rate (WT PC 10 mM PA, delay 10 s, listed as PA): 0.134 and 0.08335 and 0.06725
